Reference: ChEMBL document CHEMBL5620422, “Design, synthesis, and biological evaluation of a series of new anthraquinone derivatives as anti-ZIKV agents” (Eur J Med Chem, 2023)
The source made the active and inactive calls. The calls are words filed in the database; no cut-off is given here.

Tests used:
Zika virus [1] = experiment: Antiviral activity against ZIKV ZG-01 infected in Ifnar1 knockout C57BL/6 mouse assessed as reduction in microglia activation by measuring Iba-1 expression at 20 mg/kg, iv administered daily for 7 days by immunohistochemistry analysis; format: functional, organism-based; settings: time 7.0 day
Zika virus [2] = experiment: Antiviral activity against ZIKV ZG-01 infected in SNB-19 cells assessed as reduction in viral envelope protein expression at 5 uM by immunofluorescence assay; format: functional, organism-based
Zika virus [3] = experiment: Antiviral activity against ZIKV ZG-01 infected in human SNB-19 cells assessed as reduction in TNFalpha expression at 1 to 5 uM by RT-PCR analysis; format: functional, organism-based; settings: dose 1-5 µM
Zika virus [4] = experiment: Antiviral activity against ZIKV ZG-01 infected in human JEG-3 cells assessed as reduction in IL-1beta expression at 1 to 5 uM by RT-PCR analysis; format: functional, organism-based; settings: dose 1-5 µM
Zika virus [5] = experiment: Antiviral activity against ZIKV ZG-01 infected in human JEG-3 cells assessed as reduction in LDH release incubated for 36 hrs; format: functional, organism-based; settings: dose 1-5 µM
Zika virus [6] = experiment: Antiviral activity against ZIKV ZG-01 infected in human JEG-3 cells assessed as reduction in IL-1beta release at 1 to 5 uM by ELISA; format: functional, organism-based; settings: dose 1-5 µM
[7] = Toxicity in Ifnar1 knockout C57BL/6 mouse assessed as movement disorders at 60 mg/kg administered for 7 days; format: organism-based; settings: in vivo, 168 h, time 7 day
Zika virus [8] = experiment: Antiviral activity against ZIKV ZG-01 infected in JEG-3 cells assessed as reduction in number of viral positive cells at 5 uM by immunofluorescence assay; format: functional, organism-based
Zika virus [9] = experiment: Antiviral activity against ZIKV ZG-01 infected in human SNB-19 cells assessed as reduction in IL-1beta release at 1 to 5 uM by ELISA; format: functional, organism-based; settings: dose 1-5 µM
Zika virus [10] = experiment: Antiviral activity against ZIKV ZG-01 infected in JEG-3 cells assessed as reduction in viral envelope protein level at 10 uM after 18 to 48 hrs by Western blot assay; format: functional, organism-based; settings: time 18-48 hrs
Zika virus [11] = experiment: Antiviral activity against ZIKV ZG-01 infected in JEG-3 cells assessed as reduction in viral envelope protein level at 1 to 20 uM after 48 hrs by Western blot assay; format: functional, organism-based; settings: dose 1-20 µM
Zika virus [12] = experiment: Antiviral activity against ZIKV ZG-01 infected in SNB-19 cells assessed as reduction in viral replication at 20 uM preincubated for 1 hr followed by replacement with fresh media containing compound for 48 hrs by RT-PCR analysis; format: functional; parameters: scale not given: the % may be the effect or the level left; settings: time 49 hrs
Zika virus [13] = experiment: Antiviral activity against ZIKV ZG-01 infected in JEG-3 cells preincubated for 1 hr followed by replacement with fresh media containing compound for 48 hrs by crystal violet staining based plaque assay; format: functional
HEK293T = experiment: Inhibition of ZIKV RNA polymerase NS5 expressed in HEK293T cells co-transfected with Gluc-reporter gene at 20 uM incubated for 24 hrs by Dual-glo luminescence assay; format: cell-based; settings: Zika virus
Zika virus [14] = experiment: Antiviral activity against ZIKV ZG-01 infected in SNB-19 cells assessed as reduction in viral envelope protein level at 1 to 20 uM after 48 hrs by Western blot assay; format: functional, organism-based; settings: dose 1-20 µM
JEG-3 [15] = experiment: Antiinflammatory activity in human JEG-3 cells assessed as reduction in IL-6 expression by RT-PCR analysis; format: functional, cell-based
Zika virus [16] = experiment: Antiviral activity against ZIKV ZG-01 infected in human SNB-19 cells assessed as reduction in GSDME cleavage by Western blot analysis; format: functional, organism-based; settings: dose 1-20 µM
Zika virus [17] = experiment: Antiviral activity against ZIKV ZG-01 infected in human SNB-19 cells assessed as reduction in IFNgamma expression at 1 to 5 uM by RT-PCR analysis; format: functional, organism-based; settings: dose 1-5 µM
Zika virus [18] = experiment: Antiviral activity against ZIKV ZG-01 infected in SNB-19 cells assessed as reduction in number of viral positive cells at 5 uM by immunofluorescence assay; format: functional, organism-based
Zika virus [19] = experiment: Antiviral activity against ZIKV ZG-01 infected in Ifnar1 knockout C57BL/6 mouse assessed as reduction in neuronal necrosis by measuring necrotic debris at 20 mg/kg, iv administered daily for 7 days and measured upto 12 dpi by H and E staining based analysis; format: functional, organism-based; settings: time <= 12.0 day
JEG-3 [20] = experiment: Antiinflammatory activity in human JEG-3 cells assessed as reduction in TNFalpha expression by RT-PCR analysis; format: functional, cell-based
Zika virus [21] = experiment: Antiviral activity against ZIKV ZG-01 infected in human JEG-3 cells assessed as reduction in cell pyroptosis; format: functional, organism-based
Zika virus [22] = experiment: Antiviral activity against ZIKV ZG-01 infected in human SNB-19 cells assessed as reduction in GSDMD cleavage by Western blot analysis; format: functional, organism-based; settings: dose 1-20 µM
Zika virus [23] = experiment: Antiviral activity against ZIKV ZG-01 infected in Ifnar1 knockout C57BL/6 mouse assessed as reduction in duration of animal paralysis at 20 mg/kg, iv administered daily for 7 days; format: functional, organism-based; settings: time 7.0 day
Zika virus [24] = experiment: Antiviral activity against ZIKV ZG-01 infected in human SNB-19 cells assessed as reduction in IL-1beta expression at 1 to 5 uM by RT-PCR analysis; format: functional, organism-based; settings: dose 1-5 µM
Zika virus [25] = experiment: Antiviral activity against ZIKV ZG-01 infected in human JEG-3 cells assessed as reduction in TNFalpha release at 1 to 5 uM by ELISA; format: functional, organism-based; settings: dose 1-5 µM
SNB-19 = experiment: Antiinflammatory activity in human SNB-19 cells assessed as reduction in TNFalpha expression by RT-PCR analysis; format: functional, cell-based
Zika virus [26] = experiment: Antiviral activity against ZIKV ZG-01 infected in Ifnar1 knockout C57BL/6 mouse assessed as reduction in astrocytes activation by measuring GFAP expression at 20 mg/kg, iv administered daily for 7 days by immunohistochemistry analysis; format: functional, organism-based; settings: time 7.0 day

Structure (SMILES): C[C@]1(O)CC2=C(C[C@@]1(C)O)C(=O)c1c(O)cc(N3CCC(c4ccccc4)CC3)c(O)c1C2=O
- Activity (Zika virus [1]): Active
- Activity (Zika virus [2]): Active
- Activity (Zika virus [3]): Active
- Activity (Zika virus [4]): Active
- Activity (Zika virus [5]): Dose-Dependent Effect
- Activity (Zika virus [6]): Active
- Activity [7]: Non-Toxic
- Activity (Zika virus [8]): Active
- Activity (Zika virus [9]): Active
- Activity (Zika virus [10]): Active
- Activity (Zika virus [11]): Active
- Activity (Zika virus [12]): 100%
- EC90 (Zika virus [13]; ZG-01, JEG-3, time 49 hrs): 6.4 µM
- Activity (Zika virus [13]; time 49.0 hrs): Dose-Dependent Effect
- inhibition (HEK293T): Dose-Dependent Effect
- Activity (Zika virus [14]): Active
- Activity (JEG-3 [15]): inactive
- Activity (Zika virus [16]): Dose-Dependent Effect
- Activity (Zika virus [17]): Active
- Activity (Zika virus [18]): Active
- Activity (Zika virus [19]): Active
- Activity (JEG-3 [20]): inactive
- Activity (Zika virus [21]): Active
- Activity (Zika virus [22]): Dose-Dependent Effect
- Activity (Zika virus [23]): Active
- Activity (Zika virus [24]): Active
- Activity (Zika virus [25]): Active
- Activity (SNB-19): inactive
- Activity (Zika virus [26]): Active
